# Measured values: ChEMBL document CHEMBL1150881, “Glacins A and B: two novel bioactive mono-tetrahydrofuran acetogenins from Annona glabra” (J Nat Prod, 1998)
# Assays:
# MCF7 = experiment: Cytotoxicity against human MCF7 cells after 7 days by MTT assay; assay type: functional; settings: MCF7, 168 h, read-out: ED50 (the source's name)
# A549 = experiment: Cytotoxicity against human A549 cells after 7 days by MTT assay; assay type: functional; settings: A549, 168 h, read-out: ED50 (the source's name)
# MIA PaCa-2 = experiment: Cytotoxicity against human MIAPaCa2 cells after 7 days by MTT assay; assay type: functional; settings: MIA PaCa-2, 168 h, read-out: ED50 (the source's name)
# HT-29 = experiment: Cytotoxicity against human HT-29 cells after 7 days by MTT assay; assay type: functional; settings: HT-29, 168 h, read-out: ED50 (the source's name)
# PC-3 = experiment: Cytotoxicity against human PC3 cells after 7 days by MTT assay; assay type: functional; settings: PC-3, 168 h, read-out: ED50 (the source's name)
# A498 = experiment: Cytotoxicity against human A498 cells after 7 days by MTT assay; assay type: functional; settings: A498, 168 h, read-out: ED50 (the source's name)
# [1] = Toxicity in Artemia salina; assay type: organism-based; settings: in vivo
smiles,measurement,setting,value
COc1cccc2c1C(=O)c1c(O)c3c(c(O)c1C2=O)C[C@@](O)(C(=O)CO)C[C@@H]3O[C@H]1C[C@H](N)[C@H](O)[C@H](C)O1 [DOXORUBICIN],EC50,MCF7,0.179 µg/mL
same,EC50,A549,0.0191 µg/mL
same,EC50,MIA PaCa-2,0.0153 µg/mL
same,EC50,HT-29,0.0278 µg/mL
same,EC50,PC-3,0.046 µg/mL
same,EC50,A498,0.0062 µg/mL
CCCCCCCCCC[C@@H](O)[C@H]1CC[C@H]([C@H](O)CCCC[C@H](O)CCCCCCC[C@@H](O)CC2=C[C@H](C)OC2=O)O1 [GLACIN A],EC50,MCF7,0.00442 µg/mL
same,EC50,A549,1.53 µg/mL
same,EC50,MIA PaCa-2,0.00857 µg/mL
same,EC50,HT-29,2.3 µg/mL
same,EC50,PC-3,0.00981 µg/mL
same,LC50,[1],0.11 µg/mL
same,EC50,A498,1.25 µg/mL
CCCCCCCCCC[C@H](O)[C@@H](O)CCCC[C@H]1CC[C@H]([C@H]2CC[C@H]([C@H](O)CCCCC[C@@H](O)CC3=C[C@H](C)OC3=O)O2)O1 [GLACIN B],EC50,MCF7,0.052 µg/mL
same,EC50,A549,1.29 µg/mL
same,EC50,MIA PaCa-2,0.0274 µg/mL
same,EC50,HT-29,0.0868 µg/mL
same,EC50,PC-3,0.0559 µg/mL
same,LC50,[1],0.27 µg/mL
same,EC50,A498,2.61 µg/mL
